Read-outs that look alike come from different tables or passages of the source. One block for each molecule: values may come before it.
Legend:
[1] = Initial and over time miscibility and pH in potassium formate brines; assay type: physicochemical; details: for After Static Aging: overnight 150° F.; for pH Final: static 16 hrs @ 150° F.
Experimental: Completion breaker solutions were to be tested at 5%, 10%, and 20% by volume concentrations in each of the brines. The initial miscibility and the miscibility after static aging overnight at 150° F. were observed. Also, the pH of the final mixes was measured. The different concentrations of the breaker solutions were prepared with fresh water and filtered through a 1.6 μm glass fiber filter prior to testing.
The tests were run by adding the appropriate volume of the test breaker (5%, 10%, or 20% by volume) to the volume of the test brine needed to total 100 ml in a 4 ounce jar, sealing it, and swirling to mix the components. Observation was noted of the compatibility of the components.

[2] = Calcite dissolving capacity of breaker systems; assay type: physicochemical; details: 2.5 g BARACARB 5 in 50 mL test fluid, one hour
Experimental: The calcite dissolving capacity of each breaker system was determined in the following manner. A known amount of a technical grade calcium carbonate (commercially available from Halliburton under the tradename “BARACARB 5”) was dried in an oven for 2 hours. […] The solution was subsequently filtered with a 1 micron fiber glass filter paper.

[3] = Miscibility and pH of breaker systems in fresh water; assay type: physicochemical; details: breaker system in fresh water, 150° F. for 16 hours
Experimental: Several chelating agents and acids (breaker systems) were tested for their calcium carbonate dissolving capacity and miscibility in fresh water. Tests of the breaker systems were performed by adding a known volume of breaker system to a volume of brine needed to fill 100 ml in a jar. The jars were then sealed and swirled to mix the components. Samples containing 5%, 10%, or 20% v/v of chelating agents and acids were prepared. The jars were then placed in a static oven at 150° F. for 16 hours. Afterwards, miscibility of the components was observed and the pH of each mixture was tabulated.

[4] = Chemical oxygen demand (COD) test; assay type: physicochemical
Text: Table 2 compares the biodegradability of GLDA and EDTA and summarizes chemical oxygen demand (COD) tests which indirectly measures the amount of organic compounds in water.

[5] = Biodegradability, OECD 301 D Closed Bottle Test
Text: The same protocol was used to test EDTA (“DISSOLVINE AM3-40” available from AkzoNobel Corporate) and sodium acetate.

[6] = Compatibility and dissolution ability in potassium formate brine; assay type: physicochemical
Experimental: In this Example, the compatibility and dissolution ability of various breaker systems with formate brine were evaluated. […] For each sample a 20% v/v breaker sample was prepared in three different concentrations of potassium formate brine (11 ppg, 12 ppg, and 13 ppg).
To determine the compatibility of each breaker with the potassium formate brine, each sample was checked for the formation of formate salts. This precipitation was indicative of an incompatibility of the breaker system with the formate brine. Samples in which precipitation was observed are noted with an asterisk (*).
The dissolution ability of the breaker systems was also tested in the various concentration of formate brine. […] The jars were then dried in an 90° F. oven for 16 hours. After the elapsed time, the amount of carbonate that remained was weighed and tabulated. The difference in weight represented the amount of carbonate that was dissolved by the breaker system and/or precipitated out as a result of being incompatible with the formate brine.

[7] = 5% by volume, potassium formate brine 11.0 lb/gal
[8] = 5% by volume, potassium formate brine 12.0 lb/gal
[9] = 5% by volume, potassium formate brine 13.0 lb/gal
[10] = 10% by volume, potassium formate brine 11.0 lb/gal
[11] = 10% by volume, potassium formate brine 12.0 lb/gal
[12] = 10% by volume, potassium formate brine 13.0 lb/gal
[13] = 15% (so in the source), potassium formate brine 13.0 lb/gal
[14] = 20% by volume, potassium formate brine 11.0 lb/gal
[15] = 20% by volume, potassium formate brine 12.0 lb/gal

SMILES: O=C([O-])CC(NC(CC(=O)[O-])C(=O)[O-])C(=O)[O-].[Na+].[Na+].[Na+].[Na+] (stereo not drawn) [Iminodisuccinate, sodium salt]
% Carbonate Complexed or Dissolved [2]: 5.2% | Final Weight of BARACARB 5, g [2]: 2.37 g | pH [3]: 11.3

SMILES: Cl.NC(N)=O [Synthetic acid (HCl salt of urea), HCl salt of urea]
After Static Aging [1, 7]: Slight haze | pH Final [1, 7]: 9.9 | Initial Observation [1, 8]: Clear, totally soluble | After Static Aging [1, 8]: Very slight separation | pH Final [1, 8]: 11.4 | After Static Aging [1, 9]: Hazy | pH Final [1, 9]: 12.2 | pH Final [1, 10]: 7.0 | pH Final [1, 11]: 9.4 | pH Final [1, 12]: 11.0 | pH Final [1, 14]: 6.0 | pH Final [1, 15]: 7.0 | pH Final ([1]; 20% by volume, potassium formate brine 13.0 lb/gal): 7.5 | solubility / miscibility in the potassium formate brines ([1]; tested concentrations, 11.0-13.0 lb/gal brines): not soluble in the brines, but dispersed evenly | pH [3]: 0.88

SMILES: CC(=O)[O-].[Na+] [sodium acetate]
biodegradability (in words) ([5]; OECD 301D protocol): readily biodegradable

More lines, main results first:

Initial Observation [1, 7]: Clear, totally soluble | After Static Aging [1, 7]: Clear, totally soluble † | pH Final [1, 7]: 9.6 | Initial Observation [1, 8]: Clear, totally soluble | After Static Aging [1, 8]: Clear, totally soluble † | pH Final [1, 8]: 10.8 | Initial Observation [1, 9]: Clear, totally soluble | After Static Aging [1, 9]: Clear, totally soluble † | pH Final [1, 9]: 11.4 | Initial Observation [1, 10]: Clear, totally soluble | After Static Aging [1, 10]: Clear, totally soluble † | pH Final [1, 10]: 8.6 | Initial Observation [1, 11]: Clear, totally soluble | After Static Aging [1, 11]: Clear, totally soluble † | pH Final [1, 11]: 9.8 | Initial Observation [1, 12]: Clear, totally soluble | After Static Aging [1, 12]: Clear, totally soluble † | pH Final [1, 12]: 10.7 | Initial Observation [1, 13]: Clear, totally soluble | After Static Aging [1, 13]: Clear, totally soluble † | pH Final [1, 13]: 9.9 | Initial Observation [1, 14]: Clear, totally soluble | After Static Aging [1, 14]: Clear, totally soluble † | pH Final [1, 14]: 7.0 | Initial Observation [1, 15]: Clear, totally soluble | After Static Aging [1, 15]: Clear, totally soluble † | pH Final [1, 15]: 8.0 | % Carbonate Complexed or Dissolved [2]: 38.4% | Final Weight of BARACARB 5, g [2]: 1.54 g | pH [3]: 4.77
SMILES: N.N.O=C(O)CN(CCN(CC(=O)O)CC(=O)O)CC(=O)O [EDTA ammonium salt, reference compound]

COD [4]: ~315 mg/g | biodegradability (in words) ([5]; OECD 301D protocol): do not meet this standard | Biodegradability ([5]; Table 2): Difficult | % Dissolved or precipitated out ([6]; 20% v/v breaker, 11 ppg Potassium Formate): 92% | Amount of carbonate remaining ([6]; 20% v/v breaker, 11 ppg Potassium Formate, 2.5 g calcium carbonate, 16 hours, * = precipitation of formate salts): 0.21 g | % Dissolved or precipitated out ([6]; 20% v/v breaker, 12 ppg Potassium Formate): 89% | Amount of carbonate remaining, g ([6]; 20% v/v breaker, 12 ppg Potassium Formate, 2.5 g calcium carbonate, 16 hours, * = precipitation of formate salts): 0.28* g | % Dissolved or precipitated out ([6]; 20% v/v breaker, 13 ppg Potassium Formate): 56% | Amount of carbonate remaining, g ([6]; 20% v/v breaker, 13 ppg Potassium Formate, 2.5 g calcium carbonate, 16 hours, * = precipitation of formate salts): 1.10* g
SMILES: O=C(O)CN(CCN(CC(=O)O)CC(=O)O)CC(=O)O [EDTA, reference compound]
compatibility with the formate brine ([6]; 20% v/v breaker, 11, 12 and 13 ppg potassium formate, precipitation of formate salts = incompatible): only compatible with the formate brine at the lowest tested concentration

% Carbonate Complexed or Dissolved [2]: 9.28% | Final Weight of BARACARB 5, g [2]: 2.32 g | pH [3]: 11
SMILES: O=C(O)CN(CCOCCOCCN(CC(=O)O)CC(=O)O)CC(=O)O [EGTA]

biodegradability (in words) [5]: do not meet this standard
SMILES: O=C(O)CN(CCO)CCN(CC(=O)O)CC(=O)O [HEDTA]

Source: patent US8881823B2, “Environmentally friendly low temperature breaker systems and related methods” (Halliburton Energy Services, Inc., priority 2011, dated 2014)
